Experimental data from patent US20200061026A1, “METHODS AND COMPOSITIONS FOR PREVENTING VECTOR-BORNE DISEASE TRANSMISSION” (The Scripps Research Institute, priority 2016, published 2020).
Like-named read-outs stand apart in the source and are kept apart here.

Assays:
[1] = Plasma protein binding (equilibrium dialysis), human; type: in vitro ADME; conditions: 2 μM
Method: (§1) Frozen plasma (EDTA-K2 as anticoagulant) pooled from multiple individuals of various species was used as a test matrix. The plasma was purchased from commercial vendors or prepared in house from animals. Warfarin was used as a positive control.
(§2) Isoxazoline compounds were spiked into the blank matrix at the final concentration of 2 μM.
(§3) A 150 μL aliquot of matrix sample was added to one side of the chamber in a 96-well equilibrium dialyzer plate (HTD dialysis) and an equal volume of dialysis buffer was added to the other side of the chamber. An aliquot of matrix sample was harvested before the incubation and used as T0 samples for recovery calculation. Triplicate incubations were performed.
(§4) The dialyzer plate was placed in a humidified incubator and rotated slowly for 4 hours at 37° C. After incubation, samples were taken from the matrix side as well as the buffer side. The plasma sample was matched with equal volume of blank buffer; and buffer samples were matched with equal volume of blank plasma. The matrix-matched samples were quenched with a stop solution containing internal standard.
(§5) The samples were analyzed by LC-MS/MS.
(§6) Then, % bound fraction at 4 hours (% bound=1−% unbound) and % recovery in incubates at 4 hours were calculated.
(§7) The stability of compounds in mouse (ms), rat (r), dog (d), cynomolgus monkey (cy), and human (hu) plasma is shown in Table 10 by the percentages of compounds remaining at two hours.

[2] = Hepatocyte stability assay, rat; type: in vitro ADME; conditions: SD, hepatocytes
Method: (§8) Example 7. In Vitro Metabolic Stability of Isoxazoline Compounds in cd-1 Mouse, sd Rat, Beagle Dog, Cynomolgus Monkey and Human Cryopreserved Hepatocytes
(§9) Isoxazoline compounds (at 1 μM) were incubated with cryopreserved hepatocytes (0.5×10^6 cells per mL) in duplicates (n=2) at 37° C. using 96-well plate format.
(§10) Time points were 0, 15, 30, 60 and 90 minutes in separate plates and medium control samples without cells at 0 and 90 minutes were also incubated. At each time point the reaction was stopped by adding organic solution containing internal standard (IS).
(§11) Positive controls 7-ethoxycoumarin and 7-hydroxycoumarin were included in parallel.
(§12) The samples were analyzed by LC-MS/MS. Disappearance of the test compound was assessed based on peak area ratios of analyte/IS (no standard curve).
(§13) Intrinsic clearance and t½ values were then calculated.

CYP 2C9 = target: T1, CYP 2C9 (Homo sapiens, UniProt P11712); test: Reversible CYP inhibition in human liver microsomes, CYP 2C9; type: in vitro ADME; conditions: diclofenac, read-out: Cyp microsome IC50, 2C9
T1 construct: individual CYPs in a pool of human liver microsomes; from tissue; host or cells: pooled human liver microsomes
Method: Reversible inhibition of cytochrome P450s (CYPs) in human liver microsomes was tested using prototypical, isoform-selective activity assays for individual CYPs in a pool of human liver microsomes (i.e., testosterone for CYP 3A4, phenacetin for CYP 1A2, bufuralol for CYP 2D6, S-mephenytoin for CYP 2C19, and diclofenac for CYP 2C9). The assay provides 8-point IC50 determinations in the range of 0.010 to 50 μM drug concentrations for major isoforms of CYP450.

[3] = Hepatocyte stability assay, dog; type: in vitro ADME; conditions: Beagle, hepatocytes
Method: as §8, §9, §10, §11, §12, §13

hERG channels = hERG channels (Homo sapiens, UniProt Q12809); test: hERG channel manual patch clamp assay (CHO-K1 cells); type: cell-based
Method: Cells: Stable CHO-K1 cells expressing hERG channels (from AVIVA Biosciences) were used in the assay.
Patch Clamp recording: The recordings were performed on conventional patch clamp (Axon Multiclamp 700B, Digidata 1440, pCLAMP 10, Molecular Devices Corporation or HEKA EPC10/Patchmaster system, HEKA Elektronik Corporation) at room temperature, using the whole-cell patch clamp techniques. The composition of external solution was (mM): HEPES 10, NaCl 145, KCl 4, CaCl2 2, MgCl2 1, Glucose 10, pH to 7.4 with 1N NaOH, osmolarity to 290-300 mOsm. Filtered and kept at 4° C. The composition of internal solution was (mM): KOH 31.25, KCl 120, CaCl2 5.374, MgCl2 1.75, EGTA 10, HEPES 10, Na2-ATP 4, pH to 7.2 with 1N KOH, osmolarity to 280-290 mOsm. Filtered and kept at −20° C.
For conventional patch clamp, 35 mm culture dishes or recording chambers containing CHO-hERG cells were placed on the stage of an inverted/upright microscope and continuously perfused with external solutions from a perfusion system (RSC-160 Rapid solution Changer, BioLogic or OctaFlow I, ALA Scientific Instruments Inc).
Test compounds were dissolved in 100% DMSO to make stock solutions for each test concentration, and then diluted into external solutions to achieve final concentration for testing. Final DMSO concentration was not more than 0.3%.
Voltage command protocol: From the holding potential of −80 mV, the voltage was first stepped to 60 mV for 850 ms to open hERG channels. Then the voltage was stepped back down to −50 mV for 1275 ms, causing a “rebound” or tail current, which was measured and collected for data analysis. Finally, the voltage was stepped back to the holding potential (−80 mV). This voltage command protocol was repeated every 15000 msec. This command protocol was performed continuously during the test (vehicle control, test compounds).
Compound effect (% inhibition) was determined by difference in current amplitude before and after the application of test compounds. IC50 values were determined from concentration-response curves that were obtained with Hill fitting.

Anopheles = Anopheles membrane feeding assay, EC90 at day 7; type: in vivo; conditions: 168 h
Text: Isoxazoline compounds fluralaner or afoxolaner were reconstituted in 50% human serum and 50% red blood cells and administered to adult Anopheles stephensi mosquitos via standard membrane feeding. […] FIG. 2A represents a plot of viable Anopheles stephensi versus fluralaner concentration at each day of assessment. FIG. 2B represents a plot of viable Anopheles stephensi versus afoxolaner concentration at each day of assessment. […] The IC50 values of each compound for Anopheles death were determined by logistic regression using a least squares method to find the best fit and are shown in Table 1. IC50 values were calculated by applying a four-parameter logistic regression model using a least-squares method to find the best fit using the Graphpad Prism 5.0 software package.

[4] = Plasma protein binding (equilibrium dialysis), dog; type: in vitro ADME; conditions: 2 μM
Method: as §1, §2, §3, §4, §5, §6, §7

[5] = Plasma protein binding (equilibrium dialysis), rat; type: in vitro ADME; conditions: 2 μM
Method: as §1, §2, §3, §4, §5, §6, §7

[6] = rat (r), 1 μM, read-out: Hepatocyte stability (t½)
[7] = dog (d), 1 μM, read-out: Hepatocyte stability (t½)

hERG channels, sequence (Q12809 whole entry): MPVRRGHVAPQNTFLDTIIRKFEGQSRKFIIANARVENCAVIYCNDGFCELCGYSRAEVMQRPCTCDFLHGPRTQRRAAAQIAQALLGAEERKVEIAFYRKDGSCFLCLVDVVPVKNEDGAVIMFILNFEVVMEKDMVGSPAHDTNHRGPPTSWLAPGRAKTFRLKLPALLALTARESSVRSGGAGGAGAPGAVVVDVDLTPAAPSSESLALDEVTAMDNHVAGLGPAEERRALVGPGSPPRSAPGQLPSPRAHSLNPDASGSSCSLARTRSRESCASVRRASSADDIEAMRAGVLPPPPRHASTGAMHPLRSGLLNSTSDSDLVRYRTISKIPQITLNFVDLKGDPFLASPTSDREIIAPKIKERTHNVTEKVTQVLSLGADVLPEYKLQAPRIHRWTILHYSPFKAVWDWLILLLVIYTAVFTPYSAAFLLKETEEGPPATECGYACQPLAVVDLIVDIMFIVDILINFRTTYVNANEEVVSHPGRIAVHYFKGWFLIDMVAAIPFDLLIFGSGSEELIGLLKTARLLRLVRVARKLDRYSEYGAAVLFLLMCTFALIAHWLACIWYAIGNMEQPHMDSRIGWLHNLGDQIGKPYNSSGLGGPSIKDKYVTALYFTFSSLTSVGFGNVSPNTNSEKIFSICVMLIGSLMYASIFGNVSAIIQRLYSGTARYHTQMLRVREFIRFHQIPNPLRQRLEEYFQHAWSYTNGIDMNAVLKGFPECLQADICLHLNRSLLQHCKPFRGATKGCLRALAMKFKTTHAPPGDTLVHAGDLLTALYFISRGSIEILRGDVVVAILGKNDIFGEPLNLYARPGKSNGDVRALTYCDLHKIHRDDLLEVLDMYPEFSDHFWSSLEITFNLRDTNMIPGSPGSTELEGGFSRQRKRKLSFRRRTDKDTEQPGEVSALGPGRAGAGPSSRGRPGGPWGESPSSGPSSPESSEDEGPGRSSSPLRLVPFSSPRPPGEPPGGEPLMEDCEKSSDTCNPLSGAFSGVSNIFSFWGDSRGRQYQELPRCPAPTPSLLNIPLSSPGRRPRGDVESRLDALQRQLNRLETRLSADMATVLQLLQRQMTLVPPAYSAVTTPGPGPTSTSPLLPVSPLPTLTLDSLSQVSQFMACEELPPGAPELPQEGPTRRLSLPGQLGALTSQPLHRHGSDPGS
T1 sequence (P11712 whole entry): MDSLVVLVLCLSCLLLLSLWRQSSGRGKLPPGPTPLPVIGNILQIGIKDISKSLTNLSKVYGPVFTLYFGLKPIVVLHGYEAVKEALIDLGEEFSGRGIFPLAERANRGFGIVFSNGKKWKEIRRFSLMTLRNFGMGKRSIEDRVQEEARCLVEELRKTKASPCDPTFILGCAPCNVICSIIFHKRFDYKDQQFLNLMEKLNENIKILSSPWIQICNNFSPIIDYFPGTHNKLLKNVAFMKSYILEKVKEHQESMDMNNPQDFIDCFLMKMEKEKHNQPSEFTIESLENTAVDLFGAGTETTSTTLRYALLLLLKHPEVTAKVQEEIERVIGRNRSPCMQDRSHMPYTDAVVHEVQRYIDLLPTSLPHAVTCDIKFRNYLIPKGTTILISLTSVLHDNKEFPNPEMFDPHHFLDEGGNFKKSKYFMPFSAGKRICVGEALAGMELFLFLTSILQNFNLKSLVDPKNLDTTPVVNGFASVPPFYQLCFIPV

Structure (SMILES) | Plasma protein % binding ([1]; human (hu), 4 hours) | half-life at 1 μM [2, 6] | IC50 (CYP 2C9) | half-life at 1 μM [3, 7] | hERG inhibition (manual patch) (hERG channels; at 5 uM) | EC90 (Anopheles) | Plasma protein % binding ([4]; dog (d), 4 hours) | Plasma protein % binding ([5]; rat (r), 4 hours) | IC50 (hERG channels) | Plasma protein % binding ([1]; human, 4 h) | half-life at 1 μM ([2]; rat) | half-life at 1 μM ([3]; dog) | EC90 (Anopheles; day 7, read-out: EC90) | Plasma protein % binding ([4]; dog, 4 h) | Plasma protein % binding ([5]; rat, 4 h)
O=C(CNC(=O)c1ccc(C2=NO[C@](c3cc(Cl)cc(C(F)(F)F)c3)(C(F)(F)F)C2)c2ccccc12)NCC(F)(F)F (racemic) [Afoxolaner, afoxolaner] | >99.9 (d, hu) % | > 3.62 h | 2.9 µM | > 3.62 h | 0.9% ± 2.5% | 0.0081 µM | >99.9 (d, hu) % | 97.3 (r), % | – | – | – | – | – | – | –
O=C(CNC(=O)c1ccc(C2=NO[C@@](c3cc(Cl)cc(C(F)(F)F)c3)(C(F)(F)F)C2)c2ccccc12)NCC(F)(F)F [(S)-afoxolaner] | >99.9 (ms, r, hu), % | 1 h | 4.2 µM | 0.533 h | – | 0.008 µM | 99.5 (d) % | >99.9 (ms, r, hu), % | > 30 µM | – | – | – | – | – | –
O=C(CNC(=O)c1ccc(C2=NO[C@@](c3cc(Cl)cc(Cl)c3)(C(F)(F)F)C2)c2ccccc12)NCC(F)(F)F [(S)-4-(5-(3,5-dichlorophenyl)-5-(trifluoromethyl)-4,5-dihydroisoxazol-3-yl)-N-(2-oxo-2-((2,2,2-trifluoroethyl)amino)ethyl)-1-naphthamide] | – | – | 1.9 µM | – | – | – | – | – | 19.9 µM | >99.9% (ms, r, d, hu) | 1.28 h | 0.683 h | 0.008 µM | >99.9% (ms, r, d, hu) | >99.9% (ms, r, d, hu)
